Measured values reported in patent publication US10294248B2, “Beta-lactamase inhibitors” (VenatoRx Pharmaceuticals, Inc., priority 2013, dated 2019).
pIC50: −log10 of the molar value.

Assays:
[1] = biological target: T1, SHV-5 β-lactamase (Class A ESBL) (Klebsiella pneumoniae, UniProt P0A3M1); assay: β-Lactamase inhibition, SHV-5; format: biochemical
T1 construct: made in house; host or cells: E. coli BL21(DE3)
In short: (§1)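 Compounds are mixed with purified, untagged recombinant β-lactamase and held 15 min at 37 °C. Substrate is then added: nitrocefin (100 μM final) for OXA-1, imipenem for KPC-2, cefotaxime for SHV-5. Absorbance is followed immediately, and percent inhibition per concentration gives the IC50.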

[2] = biological target: T2, KPC-2 β-lactamase (Class A carbapenemase) (Klebsiella pneumoniae, UniProt Q9F663); assay: β-Lactamase inhibition, KPC-2; format: biochemical; conditions: imipenem substrate, 300 nm; 15 min preincubation at 37° C., PBS pH 7.4
T2 construct: made in house; host or cells: E. coli BL21(DE3)
T2 sequence (Q9F663 25-293, looked up): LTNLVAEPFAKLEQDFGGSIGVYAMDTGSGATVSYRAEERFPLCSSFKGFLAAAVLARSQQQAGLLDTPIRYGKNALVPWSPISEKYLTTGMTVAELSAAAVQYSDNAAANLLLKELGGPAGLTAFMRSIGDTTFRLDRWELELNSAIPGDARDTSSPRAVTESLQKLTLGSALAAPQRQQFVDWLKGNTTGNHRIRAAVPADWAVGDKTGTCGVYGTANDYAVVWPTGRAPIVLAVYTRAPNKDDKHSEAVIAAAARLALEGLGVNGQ
In short: as §1

[3] = biological target: T3, VIM-2 metallo-β-lactamase (Class B) (Pseudomonas aeruginosa, UniProt Q9K2N0); assay: β-Lactamase inhibition, VIM-2; format: biochemical; conditions: nitrocefin 100 μM, 486 nm; 15 min preincubation at 37° C., PBS pH 7.4
T3 construct: made in house; host or cells: E. coli BL21(DE3)
In short: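 Nitrocefin hydrolysis (100 μM final, A486 read for 10 min) by purified VIM-2 after a 15-min, 37° C enzyme–inhibitor preincubation. IC50 is the concentration halving initial hydrolysis rate, derived from percent inhibition against no-inhibitor wells.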

[4] = biological target: T4, p99 AmpC β-lactamase (Class C) (Enterobacter cloacae, UniProt P05364); assay: β-Lactamase inhibition, p99 AmpC; format: biochemical
T4 construct: made in house; host or cells: E. coli BL21(DE3)
T4 sequence (P05364 21-381): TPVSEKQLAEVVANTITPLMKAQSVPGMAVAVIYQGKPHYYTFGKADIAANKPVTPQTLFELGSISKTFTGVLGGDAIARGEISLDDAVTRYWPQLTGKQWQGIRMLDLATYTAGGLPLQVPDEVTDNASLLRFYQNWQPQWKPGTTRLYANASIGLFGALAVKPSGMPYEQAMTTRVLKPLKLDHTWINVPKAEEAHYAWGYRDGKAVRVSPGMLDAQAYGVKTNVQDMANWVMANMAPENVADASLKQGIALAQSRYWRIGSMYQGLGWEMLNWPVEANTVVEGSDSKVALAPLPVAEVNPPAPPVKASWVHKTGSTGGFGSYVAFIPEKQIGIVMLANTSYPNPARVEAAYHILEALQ

[5] = biological target: T5, OXA-1 β-lactamase (Class D oxacillinase) (Escherichia coli, UniProt P13661); assay: β-Lactamase inhibition, OXA-1; format: biochemical; conditions: nitrocefin 100 μM, 486 nm; 15 min preincubation at 37° C., PBS pH 7.4
T5 construct: made in house; host or cells: E. coli BL21(DE3)
T5 sequence (P13661 26-276): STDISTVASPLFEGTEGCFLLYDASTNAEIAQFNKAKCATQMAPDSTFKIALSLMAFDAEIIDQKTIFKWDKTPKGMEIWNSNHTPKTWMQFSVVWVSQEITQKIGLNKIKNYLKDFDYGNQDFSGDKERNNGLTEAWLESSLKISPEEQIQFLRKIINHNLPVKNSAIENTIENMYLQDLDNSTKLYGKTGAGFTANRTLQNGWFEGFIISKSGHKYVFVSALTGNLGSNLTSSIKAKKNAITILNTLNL
In short: as §1

[6] = test system: E. coli ESBL4 expressing CTX-M-15; assay: Broth microdilution MIC, E. coli ESBL4 CTX-M-15; format: cell-based; conditions: fixed 4 μg/mL ceftazidime; CAMHB, 16-20 hours at 37° C.
In short: (§2)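 Following CLSI broth microdilution, β-lactamase-producing strains grown 3–5 h were exposed in CAMHB to 2-fold dilutions of test compound (32 to 0.25 μg/mL final). A static 4 μg/mL β-lactam overlay was added. After 16–20 h at 37° C, MIC was scored by eye.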

[7] = test system: E. cloacae 144200 expressing Class C P99 AmpC; assay: Broth microdilution MIC, E. cloacae 144200 p99 AmpC; format: cell-based; conditions: fixed 4 μg/mL ceftazidime; CAMHB, 16-20 hours at 37° C.
In short: as §2

[8] = test system: K. pneumoniae 156319 expressing KPC-3; assay: Broth microdilution MIC, K. pneumoniae 156319 KPC-3; format: cell-based; conditions: fixed 4 μg/mL meropenem; CAMHB, 16-20 hours at 37° C.
In short: as §2

[9] = test system: P. aeruginosa Ps296 expressing VIM-2; assay: Broth microdilution MIC, P. aeruginosa Ps296 VIM-2; format: cell-based; conditions: fixed 4 μg/mL meropenem; CAMHB, 16-20 hours at 37° C.
In short: as §2

[10] = test system: K. pneumoniae A-1797 expressing KPC-2 and VIM-4; assay: Broth microdilution MIC, K. pneumoniae A-1797 KPC-2/VIM-4; format: cell-based; conditions: fixed 4 μg/mL meropenem; CAMHB, 16-20 hours at 37° C.
In short: as §2

[11] = test system: S. aureus MSSA-7 producing penicillinase PC-1; assay: Broth microdilution MIC, S. aureus MSSA-7 PC-1; format: cell-based; conditions: fixed 4 μg/mL piperacillin; CAMHB, 16-20 hours at 37° C.
In short: as §2

T1 sequence (P0A3M1 22-286): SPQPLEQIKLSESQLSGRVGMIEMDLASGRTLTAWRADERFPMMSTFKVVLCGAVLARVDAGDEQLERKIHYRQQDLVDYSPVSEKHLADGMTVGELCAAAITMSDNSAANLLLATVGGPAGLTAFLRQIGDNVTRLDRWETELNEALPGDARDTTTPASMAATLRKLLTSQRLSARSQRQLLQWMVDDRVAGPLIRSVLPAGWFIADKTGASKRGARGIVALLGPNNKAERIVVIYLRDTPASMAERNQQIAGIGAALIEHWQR

N[C@@H]1CCCN(CC(=O)N[C@H]2Cc3cccc(C(=O)O)c3OB2O)C1 [Example 10, 3-[2-(R-3-Amino-piperidin-1-yl)-acetylamino]-2-hydroxy-3,4-dihydro-2H-benzo[e][1,2]oxaborinine-8-carboxylic acid]
pIC50 [1]: > 7.00 | pIC50 [2]: 6.00 to 7.00 | pIC50 [3]: 5.00 to 6.00 | pIC50 [4]: > 7.00 | pIC50 [5]: 6.00 to 7.00 | MIC of example compound in presence of fixed β-lactam: Fixed CAZ, E. coli ESBL4 CTX-M-15 [6]: C (the MIC in the presence of <4 μg/mL of a β-lactamase inhibitor) | MIC of example compound in presence of fixed β-lactam: Fixed CAZ, E. cl. 144200 p99 AmpC [7]: C (the MIC in the presence of <4 μg/mL of a β-lactamase inhibitor) | MIC of example compound in presence of fixed β-lactam: Fixed Mero, K. P. 156319 KPC-3 [8]: C (the MIC in the presence of <4 μg/mL of a β-lactamase inhibitor) | MIC of example compound in presence of fixed β-lactam: Fixed Mero, P. aerug. Ps296 VIM-2 [9]: A (an MIC of the fixed β-lactam antibiotic in the presence of >32 μg/mL of a β-lactamase inhibitor) | MIC of example compound in presence of fixed β-lactam: Fixed Mero, K. P. A-1797 KPC-2 VIM-4 [10]: C (the MIC in the presence of <4 μg/mL of a β-lactamase inhibitor) | MIC of example compound in presence of fixed β-lactam: Fixed Pip, S. aureus MSSA-7 PC-1 [11]: B (the MIC in the presence of between 8 and 32 μg/mL of a β-lactamase inhibitor)

NC1CCN(CC(=O)N[C@H]2Cc3cccc(C(=O)O)c3OB2O)CC1N (stereo partly drawn) [Example 28, 3-[2-(3,4-Diamino-piperidin-1-yl)-acetylamino]-2-hydroxy-3,4-dihydro-2H-benzo[e][1,2]oxaborinine-8-carboxylic acid]
pIC50 [1]: 4.00 to 5.00 | pIC50 [2]: > 7.00 | pIC50 [3]: 4.00 to 5.00 | pIC50 [4]: > 7.00 | pIC50 [5]: > 7.00 | MIC of example compound in presence of fixed β-lactam: Fixed CAZ, E. coli ESBL4 CTX-M-15 [6]: C (the MIC in the presence of <4 μg/mL of a β-lactamase inhibitor) | MIC of example compound in presence of fixed β-lactam: Fixed CAZ, E. cl. 144200 p99 AmpC [7]: C (the MIC in the presence of <4 μg/mL of a β-lactamase inhibitor) | MIC of example compound in presence of fixed β-lactam: Fixed Mero, K. P. 156319 KPC-3 [8]: C (the MIC in the presence of <4 μg/mL of a β-lactamase inhibitor) | MIC of example compound in presence of fixed β-lactam: Fixed Mero, P. aerug. Ps296 VIM-2 [9]: C (the MIC in the presence of <4 μg/mL of a β-lactamase inhibitor) | MIC of example compound in presence of fixed β-lactam: Fixed Mero, K. P. A-1797 KPC-2 VIM-4 [10]: B (the MIC in the presence of between 8 and 32 μg/mL of a β-lactamase inhibitor) | MIC of example compound in presence of fixed β-lactam: Fixed Pip, S. aureus MSSA-7 PC-1 [11]: C (the MIC in the presence of <4 μg/mL of a β-lactamase inhibitor)

O=C(CN1CCN(c2nccs2)CC1)N[C@H]1Cc2cccc(C(=O)O)c2OB1O [Example 15, 2-Hydroxy-3-[2-(4-thiazol-2-yl-piperazin-1-yl)-acetylamino]-3,4-dihydro-2H-benzo[e][1,2]oxaborinine-8-carboxylic acid]
pIC50 [1]: 6.00 to 7.00 | pIC50 [2]: 5.00 to 6.00 | pIC50 [3]: 5.00 to 6.00 | pIC50 [4]: > 7.00 | pIC50 [5]: 6.00 to 7.00 | MIC of example compound in presence of fixed β-lactam: Fixed CAZ, E. coli ESBL4 CTX-M-15 [6]: C (the MIC in the presence of <4 μg/mL of a β-lactamase inhibitor) | MIC of example compound in presence of fixed β-lactam: Fixed CAZ, E. cl. 144200 p99 AmpC [7]: C (the MIC in the presence of <4 μg/mL of a β-lactamase inhibitor) | MIC of example compound in presence of fixed β-lactam: Fixed Mero, K. P. 156319 KPC-3 [8]: C (the MIC in the presence of <4 μg/mL of a β-lactamase inhibitor) | MIC of example compound in presence of fixed β-lactam: Fixed Mero, P. aerug. Ps296 VIM-2 [9]: C (the MIC in the presence of <4 μg/mL of a β-lactamase inhibitor) | MIC of example compound in presence of fixed β-lactam: Fixed Mero, K. P. A-1797 KPC-2 VIM-4 [10]: B (the MIC in the presence of between 8 and 32 μg/mL of a β-lactamase inhibitor) | MIC of example compound in presence of fixed β-lactam: Fixed Pip, S. aureus MSSA-7 PC-1 [11]: C (the MIC in the presence of <4 μg/mL of a β-lactamase inhibitor)
